These results are taken from patent US12297241B2, “Method to engineer transplantable human tissues” (The Regents of the University of California, priority 2018, dated 2025).

For experiment [1], the system named is H1 ESC line. The experiment in a line: HSV-tk suicide gene killing test with GCV in transduced H1 ESC line. The format is cell-based, human. To be noted: GCV 10 μM, 5 days. As for the experimental part: FIGS. 1A-1F: Molecular Sculpting of the Teratoma through miRNAs. (FIG. 1A) Schematic of miRNA-HSV-tk-GFP construct. 2A is gene encoding for a self-cleaving peptide. Upon transcription of construct it will silenced if appropriate endogenously expressed miRNA is present in the cell. (FIG. 1B) Schematic of how developing teratoma should form in the presence of Ganciclovir (GCV, 80 mg/kg/d) if cells were transduced with miRNA-HSV-tk construct. (FIG. 1C) Phase images from light microscopy showing H1 cell survival after 3 and 5 days in the presence of GCV (10 μM). H1 ESC line was either transduced with GFP control (EGIP backbone) or miR-124-HSV-tk-GFP. (FIG. 1D) Fluorescent microscopy and phase images showing HEK293T and HeLA cells transduced with either No GFP control, HSV-tk-GFP, or miR-21-HSV-tk-GFP. (FIG. 1E) Quantification of (FIG. 1D) using flow cytometry and gating based on the presence or absence of GFP. […]
miRNA-HSV-tk constructs were tested in vitro in the H1 ESC line. The functionality of the suicide gene HSV-tk was assessed in the presence of GCV. […] Furthermore, the unique miRNA specificity of the constructs was assessed based on cell type. […]

In experiment [2] the test system is miR-124-HSV-tk teratomas (H1 ESC line). The experiment in a line: In vivo enrichment of miR-124-HSV-tk teratomas with intratumoral GCV, scRNA-seq. Also on record: species or system Rag2−/−;γc−/− immunodeficient mice. As for the experimental part: FIGS. 1A-1F: Molecular Sculpting of the Teratoma through miRNAs. (FIG. 1A) Schematic of miRNA-HSV-tk-GFP construct. 2A is gene encoding for a self-cleaving peptide. Upon transcription of construct it will silenced if appropriate endogenously expressed miRNA is present in the cell. (FIG. 1B) Schematic of how developing teratoma should form in the presence of Ganciclovir (GCV, 80 mg/kg/d) if cells were transduced with miRNA-HSV-tk construct. (FIG. 1C) Phase images from light microscopy showing H1 cell survival after 3 and 5 days in the presence of GCV (10 μM). H1 ESC line was either transduced with GFP control (EGIP backbone) or miR-124-HSV-tk-GFP. (FIG. 1D) Fluorescent microscopy and phase images showing HEK293T and HeLA cells transduced with either No GFP control, HSV-tk-GFP, or miR-21-HSV-tk-GFP. (FIG. 1E) Quantification of (FIG. 1D) using flow cytometry and gating based on the presence or absence of GFP. (FIG. 1F) In vivo studies of miR-124-HSV-tk-GFP teratomas in the presence of GCV administration (80 mg/kg/d) showing cell type fraction log fold-change based on different cell types with accompanying Z-scores compared to miR-124-HSV-tk-GFP teratomas in the absence of GCV.
Applicant then tested the miRNA-HSV-tk constructs in vivo with the goal to grow a teratoma that is enriched for a desired lineage. For this task the miR-124-HSV-tk construct was selected to enrich for the neural lineage. After the H1 ESC line was successfully transduced and selected for the miR-124-HSV-tk construct, cells were subcutaneously injected into Rag2^−/−;γc^−/− immunodeficient mice and allowed to form teratomas as described above. Once teratomas reached a minimum of 1 cm in diameter, intratumoral injections with GCV (80 mg/kg/d) for half to tumors began until they grew an appropriate time for extraction (˜10 weeks).
However, enrichment for foregut was also observed. To the best os Applicant's knowledge, there is no known published literature on miR-124 having a role in foregut development.

Where [3] appears, read: intratumoral GCV 80 mg/kg/d vs tumor without GCV.

Take `Nc1nc(O)c2ncn(COC(CO)CO)c2n1` [GCV, ganciclovir]: the “cell survival in the presence of GCV” value in experiment [1] (H1 cells transduced with GFP control (EGIP backbone alone)) is recorded as “unaffected”. Further, the “cell survival in the presence of GCV” value in experiment [1] (H1 cells transduced with the miRNA-HSV-tk construct) was “total cell death”. Further, the tumor size result in experiment [2] (intratumoral GCV 80 mg/kg/d until extraction (~10 weeks) vs tumor without GCV) is “smaller size”. Also, in experiment [2] (setting [3]), the “cell types depleted (scRNA-seq)” value was “muscle, retinal pigmented epithelium, and many other cell types”; the “cell-type fraction enriched (scRNA-seq)” value is “early neurons, neuronal progenitors, Schwann cells, and foregut”; the “external heterogeneity of tumor” value was “less heterogeneous”.
